Laboratory results published in US20250152559A1, “METHODS FOR TREATING MYC-AMPLIFIED CANCER” (The Governing Council of the University of Toronto, priority 2023, published 2025).
Values joined by “and” are separate entries in the source; they are usually repeats but may differ in a detail not shown here. Equal values may be shown once.

How the values were obtained:
SU_MB002 = test: PrestoBlue cell viability, 72-hour treatment, limiting dilution; assay type: cell-based, human; settings: SU_MB002, media with uridine hydrochloride (100 μM)
Procedure: SU_MB002, NSC194, NSC197 and NSC201FT, MBT375 and MED411FHTC were maintained in Neurocult Complete (NCC) media (Stem Cell Technologies; catalogue #05751). D425 and D458 were maintained in Dulbecco's […] (DMEM) containing 10% fetal bovine serum (FBS). HD-MB03 were maintained in NCC containing 10% FBS. All cell lines were conditioned in NCC for a minimum of 48 hours before experimentation. SU_MB002 and HD-MB03 G3MB-MYC PDOX were obtained from collaborators as kind gifts and are frequently passaged in vivo. SU_MB002, a treatment-refractory group 3 MB acquired at autopsy was received from Dr. Yoon-Jae Cho. Dr. Till Milde provided HD-MB03, a treatment-naïve group 3 MBs. ICB1299 group 4 MB cells were obtained as a gift from Silvia Marino's laboratory^62. MBT375 was established in-house from a surgical specimen of group 4 MB, which was engrafted in the cerebellum of mice for serial propagation. Nanostring genotyping was used to confirm group 4 medulloblastoma identity. MED411FHTC PDOX were procured from Dr. Olson's brain tumor research lab. D425 and D458 were obtained from the ATCC. All cell lines were fingerprint verified by short tandem repeat (STR) profiling. NSC194, NSC197 and NSC201FT were derived in-house from donor fetal brain tissues^63.
For assessment of viability, cells were seeded into 96-well plates at a density of 1,000 cells per well. Viability was measured by adding PrestoBlue™ diluted 1:10 (ThermoFisher Scientific; Catalogue #A13261) followed by a 4-hour incubation. Relative fluorescence intensity was determined via background correction. To assess tumorsphere forming capacity, cells were seeded at a low density (200 cells per well) and incubated for 3-5 days. Tumorspheres were manually counted thereafter.

[1] = test system: de novo pyrimidine biosynthesis in brain tissue; test: LC-MS metabolome profiling of brain tissues of treated mice; assay type: in vivo; settings: individual samples, listed as BAY
Procedure: (§1) In parallel to these experiments, subcutaneous flank xenografts were engrafted into two cohorts of mice, which were treated with the vehicle or R2. […] To investigate the pharmacokinetics of BAY in vivo, its concentration in plasma and brain tissues of healthy mice was directly quantified using an LC-MS approach. BAY was detected in both brains and plasma of mice undergoing treatment, however the plasma concentrations exceeded those of the brain by approximately 10-fold (FIG. 5H-I). To determine whether treatment with BAY affects de novo pyrimidine biosynthesis in vivo, changes in pyrimidine metabolism were measured in the brain in comparison to tumor tissues from the flank (FIG. 5J-K). Although BAY treatment impacted de novo pyrimidine metabolism in vivo in both brain and tumor tissues, with a similar pattern observed in vitro (FIG. 4A), the effect size was stronger in peripheral tumor tissue in comparison to brain tissue. Such findings further reflect the limited capacity for BAY to accumulate within the brain.
(§2) For metabolome profiling of tissues, ˜5 mg tissue were homogenized in 225 μL of −20° C. cold, methanol using a Bullet Blender Tissue Homogenizer (NextAdvance, Inc.) Bullet for 3 min. The homogenate was vortexed for 20 s and 750 μL of −20° C. cold methyl tertiary-butyl ether (MTBE) was added, and the mixture was vortexed for 10 s and shaken at 4° C. for 5 min. Next, 188 μL room temperature water was added and vortexed for 20 s to induce phase separation. After centrifugation for 5 min at 14,000×g, the bottom polar phase was collected and dried down. Metabolite extracts were reconstituted in LC-MS grade water/acetonitrile (50:50; v:v), vortexed for 1 min, sonicated for 15 min, and centrifuged at 16,000×g and 4° C. for 15 min to remove insoluble debris.
(§3) The LC-MS metabolomics and lipidomics analyses of the 3 NSC and 3 MB cell lines and tissues were performed on a UPLC-MS system consisting of an Orbitrap IQ-X Tribrid coupled to a Horizon Vanquish UPLC system (Thermo Fisher Scientific). The lipidomics analysis was conducted in positive-ion mode with a spray voltage of 3.5 kV while the metabolomics analysis was conducted in negative-ion mode with a spray voltage of −2.5 kV. The following source conditions were identical in both analyses and were set as follows: Sheath gas flow rate, 50 arbitrary units; Aux. gas flow rate, 10 arbitrary units; Sweep gas flow rate, 1 arbitrary unit; Ion transfer tube temp., 300° C.; Vaporizer temp., 350° C. The following acquisition parameters were used for MS1 analysis in both methods: resolution, 120,000, AGC target, 4e5. The maximum IT was set at […] for the lipidomics analysis and 200 ms for the metabolomics analysis. Data-dependent MS/MS parameters for the lipidomics analyses: resolution, 30,000; AGC target, 7.5e4; maximum IT, Dynamic (54 ms); time between Master Scans, 0.6 s; isolation window, 1.0 m/z; NCE/stepped nce, 20, 30, 40; intensity threshold, 5e4; exclude isotopes, on; dynamic exclusion, 3.0 s. Data-dependent MS/MS parameters for the metabolomics analyses: resolution. 15,000; AGC target, 7.5e4; maximum IT, Dynamic (22 ms); time between Master Scans, 0.6 s; isolation window, 1.0 m/z; NCE/stepped nce, 20, 30, 40, 50; intensity threshold, 5e4; exclude isotopes, on; dynamic exclusion, 5.0 s. To increase the total number of MS/MS spectra in the lipidomics analysis, five runs with iterative MS/MS exclusions were performed using the AcquireX function in Xcalibur (Thermo Fisher Scientific). In the metabolomics analysis, three runs with iterative MS/MS exclusions were performed using the AcquireX function. For the lipidomics analysis, chromatographic separation was achieved using a Waters Acquity UPLC CSH C18 (100 mm×2.1 mm i.d.; 1.7 μm) column injecting 2 μL. […] The column was equilibrated for 2 min at 15% B. The flow rate was set to 250 μL/min. The column temperature was maintained at 65° C. […]

[2] = test system: de novo pyrimidine biosynthesis in flank tumor tissue; test: LC-MS metabolome profiling of flank xenograft tissues of treated mice; assay type: in vivo; settings: individual samples, listed as BAY
Procedure: as §1, §2, §3

[3] = Mouse body weight / tolerability during treatment regimens; assay type: in vivo
Procedure: The treatment-naïve, patient-derived cell line, HD-MB03, was orthotopically engrafted into immunocompromised mice. Four days later, tumors were readily detectible via bioluminescence imaging. Thereafter mice were randomized into three cohorts, which were treated with either the vehicle or one of two BAY treatment regimens (R1 and R2; FIG. 5B).

[4] = brain tissue of BAY-treated mice
[5] = flank tumor tissue of BAY-treated mice

## CCn1c(CO)nn(-c2cc(O[C@@H](C)C(F)(F)F)c(C(=O)Nc3c(F)cccc3Cl)cc2F)c1=O [BAY2402234]
SU_MB002
  tumor cell proliferation and viability with uridine supplementation: rescues
[1]; [4]
  Glutamine normalized peak intensity (Area): 280983232 and 324326048 and 229454432 and 206007952
  N-Carbamoyl aspartic acid normalized peak intensity (Area): 1700352 and 1616900 and 1920988 and 2261730
  Orotic acid normalized peak intensity (Area): 3366687 and 6999989 and 4291824 and 3862066
  UDP-GluNAc normalized peak intensity (Area): 16715786 and 8363980 and 11501715 and 11534621
  UTP normalized peak intensity (Area): 22962 and 19870 and 12207 and 19991
  Uridine 5′-diphosphate (UDP) normalized peak intensity (Area): 133672 and 97588 and 69682 and 73337
  Uridine 5′-monophosphate normalized peak intensity (Area): 23218120 and 13372546 and 15616277 and 19018060
  Uridine normalized peak intensity (Area): 41449420 and 113184456 and 51214976 and 33664876
  dihydroorotic acid normalized peak intensity (Area): 1975829 and 3553594 and 1415838 and 2677330
[1]
  BAY-2402234 normalized peak intensity (Area): 1338708 and 4796862 and 1717137 and 2579631
[2]; [5]
  Glutamine normalized peak intensity (Area): 55492788 and 50587148 and 68843176 and 56207472
  N-Carbamoyl aspartic acid normalized peak intensity (Area): 385157056 and 380028608 and 450759360 and 384681824
  Orotic acid normalized peak intensity (Area): 33617724 and 35906864 and 46970420 and 34348420
  UDP-GluNAc normalized peak intensity (Area): 2589539 and 2049874 and 3781049 and 10999488
  UTP normalized peak intensity (Area): 4036 and 1148 and 5307 and 1474
  Uridine 5′-diphosphate (UDP) normalized peak intensity (Area): 5654 and 1891 and 15124 and 5023
  Uridine 5′-monophosphate normalized peak intensity (Area): 17895140 and 14218088 and 25187528 and 9202930
  Uridine normalized peak intensity (Area): 1736921 and 2207031 and 3920911 and 1886173
  dihydroorotic acid normalized peak intensity (Area): 119216720 and 62149264 and 89191448 and 46399468
[2]
  BAY-2402234 normalized peak intensity (Area): 249608 and 266857 and 361684 and 146195
[3]; 5 mg/kg
  tolerability over the entire treatment period: well-tolerated
[3]; R2, after the 10 mg/kg doses
  body weight: marginal, temporary weight loss
